Source: the supplement of paper PMC9265050, “Inhibition of RNA Binding in SND1 Increases the Levels of miR-1-3p and Sensitizes Cancer Cells to Navitoclax” (Cancers, 2022)

Tested on: SW480
Assay: drug sensitivity score (DSS, integrated dose-response area); higher = more sensitive (stronger viability reduction); extreme values may be limits of the assay
Summary of the method: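 SW480 cells stably carrying doxycycline-inducible control or SND1-targeting shRNA were induced with 0.1 µg/mL doxycycline for 7 days. They were then plated at 1000 cells per well in 384-well plates holding 525 commercially available small-molecule inhibitors at five concentrations. Viability was read with CellTiter-Glo after 72 h. The drug sensitivity score integrates the area under a fitted non-linear dose–response model.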

[1] = shRNA: SND1 shRNA1 (SND1 silenced)
[2] = shRNA: SND1 shRNA2 (SND1 silenced)
[3] = shRNA: control shRNA (non-targeting)

SMILES | drug sensitivity score [1] | drug sensitivity score [2] | drug sensitivity score [3]
CCN1CCN(Cc2ccc(Nc3ncc(F)c(-c4cc(F)c5nc(C)n(C(C)C)c5c4)n3)nc2)CC1 [Abemaciclib] | 4 DSS | 0.2 DSS | 4.1 DSS
CN(C)Cc1c(C(=O)NCCOc2ccc(C(=O)NO)cc2)oc2ccccc12 [Abexinostat] | 21.3 DSS | 16.4 DSS | 19.4 DSS
C[C@]12CC[C@H](O)CC1=CC[C@@H]1[C@@H]2CC[C@]2(C)C(c3cccnc3)=CC[C@@H]12 [Abiraterone] | 0 DSS | 0 DSS | 0 DSS
CN(C)C/C=C/C(=O)Nc1cc2c(Nc3ccc(F)c(Cl)c3)ncnc2cc1O[C@H]1CCOC1 [Afatinib] | 2.1 DSS | 1.8 DSS | 1.2 DSS
Cn1ncc(Cl)c1-c1cc(C(=O)N[C@H](CN)Cc2cccc(F)c2)sc1Cl [Afuresertib] | 0 DSS | 2 DSS | 0 DSS
COc1cccc2c1C(=O)c1c(O)c3c(c(O)c1C2=O)C[C@@](O)(/C(CO)=N/NC(=O)CCCCCN1C(=O)C=CC1=O)C[C@@H]3O[C@H]1C[C@H](N)[C@H](O)[C@H](C)O1 [Aldoxorubicin] | 7.5 DSS | 5.7 DSS | 8.4 DSS
CCc1cc2c(cc1N1CCC(N3CCOCC3)CC1)C(C)(C)c1[nH]c3cc(C#N)ccc3c1C2=O [Alectinib] | 0 DSS | 0 DSS | 0 DSS
COc1cc(Nc2ncc3c(n2)-c2ccc(Cl)cc2C(c2c(F)cccc2OC)=NC3)ccc1C(=O)O [Alisertib] | 12.6 DSS | 4.4 DSS | 6.5 DSS
Oc1ncnc2[nH]ncc12 [Allopurinol] | 0.2 DSS | 0 DSS | 1.2 DSS
Cc1nc(NC(=O)N2CCC[C@H]2C(N)=O)sc1-c1ccnc(C(C)(C)C(F)(F)F)c1 [Alpelisib] | 2.8 DSS | 5.2 DSS | 4.3 DSS
CN(C)c1nc(N(C)C)nc(N(C)C)n1 [Altretamine] | 0 DSS | 0 DSS | 0 DSS
CO[C@H]1/C=C\C=C(/C)C(=O)NC2=CC(=O)C(NCCN(C)C)=C(C[C@@H](C)C[C@H](OC)[C@H](O)[C@@H](C)/C=C(\C)[C@@H]1OC(N)=O)C2=O [Alvespimycin] | 7 DSS | 6 DSS | 7.9 DSS
CN1CC[C@H](c2c(O)cc(O)c3c(=O)cc(-c4ccccc4Cl)oc23)[C@H](O)C1 [Alvocidib] | 21.9 DSS | 20.3 DSS | 20.4 DSS
CCC1(c2ccc(N)cc2)CCC(=O)NC1=O (centres undefined) [Aminoglutethimide] | 0 DSS | 0 DSS | 0 DSS
CN(C)CCN1C(=O)c2cccc3cc(N)cc(c23)C1=O [Amonafide] | 8.8 DSS | 5.2 DSS | 7.8 DSS
COc1cc(NS(C)(=O)=O)ccc1Nc1c2ccccc2nc2ccccc12 [Amsacrine] | 8.6 DSS | 3.7 DSS | 7 DSS
S=C(NCc1ccc2c(c1)OCO2)N1CCN(c2ncnc3c2oc2ccccc23)CC1 [Amuvatinib] | 3.9 DSS | 6.4 DSS | 6.7 DSS
O=C1CN2Cc3c(ccc(Cl)c3Cl)N=C2N1 [Anagrelide] | 0 DSS | 0 DSS | 0 DSS
CC(C)(C#N)c1cc(Cn2cncn2)cc(C(C)(C)C#N)c1 [Anastrozole] | 0 DSS | 0 DSS | 0 DSS
N#CC1(c2ccc(NC(=O)c3cccnc3NCc3ccncc3)cc2)CCCC1 [Apatinib] | 0 DSS | 0 DSS | 0 DSS
Cc1c(CN2CCN(C(=O)[C@H](C)O)CC2)sc2c(N3CCOCC3)nc(-c3cnc(N)nc3)nc12 [Apitolisib] | 11 DSS | 9.3 DSS | 6.6 DSS
CC(C)c1c(C(=O)Nc2ccccc2)c(-c2ccccc2)c(-c2ccc(F)cc2)n1CC[C@@H](O)C[C@@H](O)CC(=O)O [Atorvastatin] | 4.9 DSS | – | 7.6 DSS
CC(=O)OC[C@H]1O[C@@H]([S-])[C@H](OC(C)=O)[C@@H](OC(C)=O)[C@@H]1OC(C)=O.CCP(CC)CC.[Au+] [Auranofin] | 6.2 DSS | 8.8 DSS | 8.7 DSS
CNC(=O)c1ccccc1Sc1ccc2c(/C=C/c3ccccn3)n[nH]c2c1 [Axitinib] | 6 DSS | 2.8 DSS | 5.4 DSS

SMILES | drug sensitivity score [1] | drug sensitivity score [2] | drug sensitivity score [3]
Nc1ncn([C@@H]2O[C@H](CO)[C@@H](O)[C@H]2O)c(=O)n1 [Azacitidine] | 3.7 DSS | 4.4 DSS | 2.9 DSS
Cc1cc(-c2nc(-c3ccc(OC(F)(F)F)cc3)no2)nn1Cc1ccnc(N2CCN(C3CC3)CC2)c1 [BAY 87-2243] | 0.3 DSS | 21.9 DSS | 1.1 DSS
Nc1nc(Nc2ccc3c(c2)CC[C@@H](N2CCCC2)CC3)nn1-c1cc2c(nn1)-c1ccccc1CCC2 [BGB324] | 9 DSS | 5.9 DSS | 9.6 DSS
CC[C@@H]1C(=O)N(C)c2cnc(Nc3ccc(C(=O)NC4CCN(C)CC4)cc3OC)nc2N1C1CCCC1 [BI 2536] | 16.8 DSS | 18.5 DSS | 19.9 DSS
COc1c(C)cnc(Cn2cnc3c(Cl)nc(N)nc32)c1C [BIIB021] | 17.4 DSS | 18.4 DSS | 17.8 DSS
O=C(Nc1cccc(Nc2ncc(Br)c(NCCc3cnc[nH]3)n2)c1)N1CCCC1 [BX-912] | 6.7 DSS | 6.5 DSS | 8.5 DSS
Cc1ccc(NC(=O)c2ccc(CN3CC[C@H](N(C)C)C3)c(C(F)(F)F)c2)cc1Nc1nccc(-c2cncnc2)n1 [Bafetinib] | 0.3 DSS | 0 DSS | 0 DSS
CCS(=O)(=O)N1CC(CC#N)(n2cc(-c3ncnc4[nH]ccc34)cn2)C1 [Baricitinib] | 0 DSS | 0.3 DSS | 1 DSS
O=C(/C=C/c1cccc(S(=O)(=O)Nc2ccccc2)c1)NO [Belinostat] | 16.4 DSS | 13.8 DSS | 12.7 DSS
Cn1c(CCCC(=O)O)nc2cc(N(CCCl)CCCl)ccc21 [Bendamustine] | 1.7 DSS | 0.5 DSS | 3.5 DSS
N#CC(c1ccnc(OCc2ccc(CN3CCOCC3)cc2)n1)c1nc2ccccc2s1 (centres undefined) [Bentamapimod] | 2.3 DSS | – | 4 DSS
C=C(c1ccc(C(=O)O)cc1)c1cc2c(cc1C)C(C)(C)CCC2(C)C [Bexarotene] | 0 DSS | 0 DSS | 0 DSS
CC(O)(CS(=O)(=O)c1ccc(F)cc1)C(=O)Nc1ccc(C#N)c(C(F)(F)F)c1 (centres undefined) [Bicalutamide] | 0.4 DSS | 0.3 DSS | 1.4 DSS
CCNC(=O)CCC/C=C\C[C@@H]1[C@@H](/C=C/[C@@H](O)CCc2ccccc2)[C@H](O)C[C@@H]1O [Bimatoprost] | 0 DSS | 0 DSS | 0 DSS
Cn1cnc2c(F)c(Nc3ccc(Br)cc3F)c(C(=O)NOCCO)cc21 [Binimetinib] | 11.9 DSS | 6.6 DSS | 6.6 DSS
CC[C@H](NC(=O)[C@H](C)NC)C(=O)N1C[C@@H](O)C[C@H]1Cc1c(-c2[nH]c3cc(F)ccc3c2C[C@@H]2C[C@H](O)CN2C(=O)[C@H](CC)NC(=O)[C@H](C)NC)[nH]c2cc(F)ccc12 [Birinapant] | 0 DSS | 0 DSS | 0 DSS
Cc1c(N)nc([C@H](CC(N)=O)NC[C@H](N)C(N)=O)nc1C(=O)N[C@H](C(=O)N[C@H](C)[C@@H](O)[C@H](C)C(=O)N[C@H](C(=O)NCCc1nc(-c2nc(C(=O)NCCC[S+](C)C)cs2)cs1)[C@@H](C)O)[C@@H](OC1OC(CO)C(O)C(O)C1OC1OC(CO)C(O)C(OC(N)=O)C1O)c1cnc[nH]1 (some centres undefined) [Bleomycin] | 4.8 DSS | 5.4 DSS | 4.2 DSS
CC(C)C[C@H](NC(=O)[C@H](Cc1ccccc1)NC(=O)c1cnccn1)B(O)O [Bortezomib] | 28.8 DSS | 28.1 DSS | 28.7 DSS
COc1cc(Nc2c(C#N)cnc3cc(OCCCN4CCN(C)CC4)c(OC)cc23)c(Cl)cc1Cl [Bosutinib] | 9.2 DSS | 7.3 DSS | 8 DSS
Cc1cc2c(F)c(Oc3ncnn4cc(OC[C@@H](C)O)c(C)c34)ccc2[nH]1 [Brivanib] | 0 DSS | 0 DSS | 0 DSS
CCC/C=C/C=C/C(=O)O[C@H]1/C(=C/C(=O)OC)C[C@H]2C[C@H]([C@@H](C)O)OC(=O)C[C@H](O)C[C@@H]3C[C@H](OC(C)=O)C(C)(C)[C@](O)(C[C@@H]4C/C(=C/C(=O)OC)C[C@H](/C=C/C(C)(C)[C@]1(O)O2)O4)O3 [Bryostatin 1] | 1.7 DSS | 0.6 DSS | 0 DSS
Nc1cc(C(F)(F)F)c(-c2cc(N3CCOCC3)nc(N3CCOCC3)n2)cn1 [Buparlisib] | 8.9 DSS | 7.7 DSS | 5.9 DSS
CS(=O)(=O)OCCCCOS(C)(=O)=O [Busulfan] | 0 DSS | 1.4 DSS | 1.5 DSS
